Data reported in patent US20100184094A1, “USE OF MDCK CELLS IN THE EVALUATION OF CHOLESTEROL MODULATORS” (priority 2007, published 2010).

Assays:
dog NPC1L1 = dog NPC1L1 (Canis lupus familiaris, UniProt A0A8I3RZG1); experiment: [3H]cholesterol flux into dNPC1L1/MDCKII-Flp cells; type: cell-based
Method: (§1) Flux assays were performed essentially as described by Yu et al., 2006 J Biol. Chem. 281:6616-6624. Briefly, cell growth medium was completely aspirated and replaced with 200 μl of 5% LPDS containing the appropriate concentration of compound and incubated at 37° C./3 h in a 5% CO2 incubator. Media was subsequently aspirated from cells and cells were incubated in 200 μl of 0-5.5% βmCD dissolved and filtered through a […] filter at 37° C./45 minutes in a 5% CO2 incubator. Media was dumped from cells that were then washed twice with 125 μl of 5% LPDS before media was aspirated and [3H]cholesterol complexed to BSA in 5% LPDS was added; see Yu et al., 2006 J. Biol. Chem. 281:6616-6624. After 45 minute incubation, cells were washed twice with DMEM, thoroughly aspirated and then 1% SDS was added prior to extraction for scintillation counting.
Further evidence for the role of NPC1L1 expression levels on EZE-sensitive [^3H]cholesterol influx was obtained by analyzing the properties of MDCKII-Flp cells over-expressing dog NPC1L1 (dNPC1L1/MDCKII-Flp cells) in an inducible manner.
To further characterize the [^3H] cholesterol influx process into MDCK cells, the potency of EZE-like compound PS for inhibiting [^3H] cholesterol uptake was determined. […]

MDCKII-Flp cells = experiment: [3H]cholesterol flux into MDCKII-Flp cells; type: cell-based, dog; conditions: 10 μM PS, 5.5% βmCD pre-treatment
Method: as §1
To validate MDCKII cells as an appropriate surrogate system for monitoring NPC1L1-dependent processes, we evaluated their ability to perform EZE-sensitive cholesterol flux using a similar protocol to that recently reported. This assay makes use of the ability of βmCD to deplete membrane-bound cholesterol. Subsequent exposure of cells to [^3H] cholesterol provides a time-dependent flux of this substrate into the cells. […]

Sequence of dog NPC1L1 (A0A8I3RZG1 entry or part of it): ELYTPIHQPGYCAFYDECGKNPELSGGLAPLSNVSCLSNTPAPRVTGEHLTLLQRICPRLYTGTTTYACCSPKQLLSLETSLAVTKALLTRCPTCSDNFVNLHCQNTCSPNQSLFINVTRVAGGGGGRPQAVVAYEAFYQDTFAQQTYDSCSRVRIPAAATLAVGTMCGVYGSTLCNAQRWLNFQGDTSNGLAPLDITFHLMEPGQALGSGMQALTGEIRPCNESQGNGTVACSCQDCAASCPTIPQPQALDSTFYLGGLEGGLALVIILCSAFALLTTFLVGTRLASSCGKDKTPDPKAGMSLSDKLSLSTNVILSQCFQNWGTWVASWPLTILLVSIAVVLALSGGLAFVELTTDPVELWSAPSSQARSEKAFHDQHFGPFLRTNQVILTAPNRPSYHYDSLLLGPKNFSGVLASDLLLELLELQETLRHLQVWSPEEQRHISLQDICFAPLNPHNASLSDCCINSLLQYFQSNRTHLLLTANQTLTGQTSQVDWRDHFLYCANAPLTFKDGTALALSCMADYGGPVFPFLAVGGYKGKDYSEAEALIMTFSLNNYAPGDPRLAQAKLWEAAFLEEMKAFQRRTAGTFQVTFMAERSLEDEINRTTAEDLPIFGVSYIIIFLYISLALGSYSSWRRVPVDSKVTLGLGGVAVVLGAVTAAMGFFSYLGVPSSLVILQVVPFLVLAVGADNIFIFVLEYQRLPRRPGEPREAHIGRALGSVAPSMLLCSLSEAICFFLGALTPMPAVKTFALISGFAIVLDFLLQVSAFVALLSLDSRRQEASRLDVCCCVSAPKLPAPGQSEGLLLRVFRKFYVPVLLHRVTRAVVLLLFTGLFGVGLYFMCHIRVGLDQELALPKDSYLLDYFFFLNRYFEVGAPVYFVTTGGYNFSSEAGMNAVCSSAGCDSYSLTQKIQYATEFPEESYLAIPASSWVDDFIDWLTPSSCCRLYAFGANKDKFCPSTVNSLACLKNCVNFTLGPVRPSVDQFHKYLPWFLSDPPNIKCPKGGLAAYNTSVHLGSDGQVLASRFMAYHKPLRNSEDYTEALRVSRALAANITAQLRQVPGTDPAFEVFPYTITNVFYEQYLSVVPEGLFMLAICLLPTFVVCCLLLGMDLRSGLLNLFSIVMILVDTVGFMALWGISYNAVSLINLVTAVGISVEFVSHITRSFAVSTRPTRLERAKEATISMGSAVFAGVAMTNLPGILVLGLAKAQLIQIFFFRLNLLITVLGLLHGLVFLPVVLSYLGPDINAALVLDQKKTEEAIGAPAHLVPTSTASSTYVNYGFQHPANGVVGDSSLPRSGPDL

## COC(=O)[C@H]1O[C@@H](Oc2ccc([C@@H]3[C@@H](CC[C@H](O)c4ccc(F)cc4)C(=O)N3c3ccc(C#CCNS(C)(=O)=O)cc3)cc2)[C@H](O)[C@@H](O)[C@@H]1O [PS, 4-[(2S,3R)-3-[(3S)-3-(4-fluorophenyl)-3-hydroxypropyl]-1-(4-{3-[(methylsulfonyl)amino]prop-1-yn-1-yl}phenyl)-4-oxoazetidin-2-yl]phenyl methyl-β-D-glucopyranosiduronate]
Dog NPC1L1; 10 μM PS, 5.5% βmCD, after induction with 4 mM sodium butyrate
  blockade of [3H]cholesterol influx: almost completely blocked
Dog NPC1L1; dNPC1L1/MDCKII-Flp, FIG. 7C, read-out: IC50 inhibition of [3H]cholesterol uptake
  IC50: 0.32 ± 0.09 nM
MDCKII-Flp cells
  blockade of [3H]cholesterol influx: marginally blocked
